Test results as given in patent US5846720A, “Methods of determining chemicals that modulate expression of genes associated with cardiovascular disease” (Oncogene Science, Inc., priority 1996, dated 1998).
Where two headings read alike, the source gives them in different places.

What was measured:
[1] = test system: G-CSF promoter; experiment: G-CSF promoter/luciferase reporter assay (high-throughput screen I), G21 cells; details: for scored as positive in repeat assays (G-CSF): 48 independent luciferase assays, same day; for GCSF fold induction relative to solvent control: transcriptional activators; for GCSF fold induction relative to solvent control / GCSF fold inhibition relative to solvent control: Table 2, 6 h incubation; for GCSF fold inhibition relative to solvent control: transcriptional inhibitors
[2] = test system: MMTV promoter; experiment: MMTV promoter/luciferase reporter assay (high-throughput screen I, control for specificity), M10 cells; format: cell-based, mouse; details: for MMTV fold induction relative to solvent control: transcriptional activators, original high-throughput assay
Protocol: pMluci and pSV2Neo, an antibiotic resistance plasmid (84), were co-transfected into NIH/3T3 mouse fibroblast cells using the calcium phosphate precipitation method (85) with a commercially available kit (Pharmacia, Piscataway N.J.). Two days later, cells were transferred to media containing 0.4 mg/ml G418 and were grown for an additional 10-14 days. G418-resistant clones were isolated by standard methods. Once sufficient cell numbers were obtained, clones were analyzed based on several criteria: constitutive luciferase production, induction of luciferase expression by dexamethasone ([…], Sigma, St. Louis, Mo.), satisfactory attachment to microtiter plates used in the high-throughput screen (see section G) and acceptable standard deviation in multiple luciferase expression assays (see below for assay protocol). This analysis was carried out using the luciferase assay conditions described above. Of the clones which satisfied the above criteria for the high throughput screen, one clone, M10, was selected for use.

[3] = test system: hGH promoter; experiment: hGH promoter/luciferase reporter assay (high-throughput screen I), 532 cells; format: cell-based, rat; details: for hGH fold induction relative to solvent control: transcriptional activators
Text: 6. a GC rat pituitary cell line, transfected with the growth hormone reporter plasmid, designated 532, deposited under ATCC Accession No. CRL 10663.

[4] = Table 2, 6 h incubation, 360 min
[5] = transcriptional inhibitors, Table 2, 6 h incubation

| SMILES | GCSF fold induction relative to solvent control [1] [fold] | MMTV fold induction relative to solvent control ([2]; Table 2, 6 h incubation) [fold] | hGH fold induction relative to solvent control ([3]; Table 2, 6 h incubation) [fold] | GCSF fold inhibition relative to solvent control [1] [fold] | MMTV fold inhibition relative to solvent control [2, 5] [fold] | hGH fold inhibition relative to solvent control [3, 5] [fold] | also measured |
| --- | --- | --- | --- | --- | --- | --- | --- |
| CC(=O)n1ccnc1 [#58] |  |  |  |  |  |  | scored as positive in repeat assays (G-CSF) [1]: scored as positives in every single one of these assays |
| CN(C)c1ccc2cc3ccc(N(C)C)cc3nc2c1 [#80] |  |  |  |  |  |  | activation of the G-CSF promoter (dose response) ([1]; G21 cells): specifically activated the G-CSF promoter; EC50 ([1]; read-out: ED50 (concentration of chemical resulting in 50% maximal stimulation), G-CSF reporter cell line G21, range over the three chemicals): 5 to 70 µM |
| c1ccc(-c2cccc(-c3ccccn3)n2)nc1 [#453] |  |  |  |  |  |  | effect of replacing DMSO by methanol on MMTV activation ([2]; chemical dissolved in methanol): did not affect its ability to activate the MMTV promoter; MMTV fold induction relative to solvent control [2, 4]: 13.3 fold |
| CC(=O)N(C)c1ccc(N)cc1 [#1374] |  |  |  |  |  |  | scored as positive in repeat assays (G-CSF) [1]: scored as positives in every single one of these assays |
| O=NN(O)c1ccccc1 [#1783] |  |  |  |  |  |  | scored as positive in repeat assays (G-CSF) [1]: scored as positive only in half of the 48 repeat assays |
| CC(=O)c1c(C)cc(NC(C)(C)C)nc1NC(C)(C)C [Chemical 40] | 5.62 | 0.27 | 0.62 |  |  |  |  |
| CC(=O)c1ccc[nH]1 [Chemical 70] | 0.43 | 0.85 | 9.26 |  |  |  |  |
| CN(C)c1ccc2cc3ccc(N(C)C)cc3nc2c1 [Chemical 80] | 5.87 | 0.83 | 0.66 |  |  |  |  |
| CN(C)c1ccc(C(=N)c2ccc(N(C)C)cc2)cc1 [Chemical 183] |  |  |  | 0.72 | 0.70 | 4.00 |  |
| O=C(c1ccccc1)c1ccncc1 [Chemical 209] |  |  |  | 6.66 | 0.81 | 1.08 |  |
| CCOC(=O)N1C(=O)c2ccccc2C1=O [Chemical 237] | 4.77 | 0.62 | 0.06 |  |  |  |  |
| Cc1c(C(=O)O)c(O)cc2c1C(=O)c1c(O)c([C@@H]3O[C@H](CO)[C@@H](O)[C@H](O)[C@H]3O)c(O)c(O)c1C2=O [Chemical 240] |  |  |  | 0.63 | 0.80 | 5.26 |  |
| ClCCN1CCCCC1 [Chemical 254] | 4.09 | 0.98 | 0.90 |  |  |  |  |
| NC(=O)N1c2ccccc2CCc2ccccc21 [Chemical 299] | 0.53 | 0.47 | 5.46 |  |  |  |  |
| CCn1c(=O)[nH]c2ccccc21 [Chemical 322] | 0.60 | 1.12 | 11.18 |  |  |  |  |
| O=c1c(O)c(-c2ccc(O)c(O)c2)oc2cc(O)ccc12 [Chemical 325] | 0.14 | 1.0 | 5.42 |  |  |  |  |
| Nc1nc(N)nc(N)n1 [Chemical 364] | 3.67 | 1.07 | 1.18 |  |  |  |  |

| SMILES | GCSF fold induction relative to solvent control [1] [fold] | MMTV fold induction relative to solvent control ([2]; Table 2, 6 h incubation) [fold] | hGH fold induction relative to solvent control ([3]; Table 2, 6 h incubation) [fold] | GCSF fold inhibition relative to solvent control [1] [fold] | MMTV fold inhibition relative to solvent control [2, 5] [fold] | hGH fold inhibition relative to solvent control [3, 5] [fold] | also measured |
| --- | --- | --- | --- | --- | --- | --- | --- |
| O=c1c(O)c(-c2ccc(O)cc2O)oc2cc(O)cc(O)c12 [Chemical 371] |  |  |  | 11.11 | 0.89 | 0.41 |  |
| O=C(O)c1ccc2c3c(ncnc13)-c1ccccc1C2=O [Chemical 378] | 4.12 | 0.59 | 0.26 |  |  |  |  |
| CCN(CC)CCCC(C)Nc1c2ccc(Cl)cc2nc2ccc(OC)cc12 (stereo not drawn) [Chemical 423] | 2.39 | 0.64 | 0.56 |  |  |  |  |
| O=c1ccc2[n+]([O-])c3ccc(O)cc3oc-2c1 [Chemical 427] | 3.14 | 0.71 | 0.43 |  |  |  |  |
| Cc1cc(C)nc(NS(=O)(=O)c2ccc(N)cc2)n1 [Chemical 443] |  |  |  | 0.60 | 0.79 | 4.76 |  |
| c1ccc(-c2cccc(-c3ccccn3)n2)nc1 [Chemical 453] | 0.79 |  | 0.58 |  |  |  | MMTV fold induction relative to solvent control [2, 4]: 13.30 fold |
| c1ncncn1 [Chemical 473] | > 3 | 0.87 | 0.50 |  |  |  |  |
| O=S(=O)(O)c1ccc2c(N=Nc3ccc(S(=O)(=O)O)c4ccccc34)c(O)c(S(=O)(=O)O)cc2c1 [Chemical 512] |  |  |  | 0.81 | 0.68 | 5.26 |  |
| CC(C=O)=CC=CC(C)=CC=CC=C(C)C=CC=C(C)C=CC1=C(C)CCCC1(C)C [Chemical 519] | 1.15 | 2.76 | 0.68 |  |  |  |  |
| O=P(O)(O)Oc1c[nH]c2ccc(Br)c(Cl)c12 [Chemical 541] |  |  |  | 0.90 | 0.86 | 6.25 |  |
| CON(C)C(=O)Nc1ccc(Cl)cc1 [Chemical 552] | 0.81 | 0.86 | 5.31 |  |  |  |  |
| CC1=CC(=C(c2cc(C)c(O)c(C(=O)O)c2)c2c(Cl)ccc(S(=O)(=O)O)c2Cl)C=C(C(=O)O)C1=O [Chemical 556] |  |  |  | 0.73 | 0.87 | 33.33 |  |
| CC(=O)NCCCC[C@H](NC(C)=O)C(=O)O [Chemical 577] |  |  |  | 0.64 | 0.68 | 4.00 |  |
| O=C(O[C@H](C(=O)O)[C@H](OC(=O)c1ccccc1)C(=O)O)c1ccccc1 [Chemical 578] |  |  |  | 0.65 | 0.91 | 4.00 |  |
| COc1ccc(CC(=O)O)cc1OC [Chemical 629] | 0.85 | 2.48 | 1.05 |  |  |  |  |
| O=C(O)CC1NC(=O)NC1=O (stereo not drawn) [Chemical 630] |  |  |  | 0.70 | 0.74 | 3.57 |  |
| C[C@]12C=CC(=O)C=C1CC[C@@H]1[C@@H]2[C@@H](O)C[C@@]2(C)[C@H]1CC[C@]2(O)C(=O)CO [Chemical 764] |  |  |  |  |  |  | MMTV fold inhibition relative to solvent control [2]: 0.59; hGH fold inhibition relative to solvent control [3]: 4.54 |
